# Data published in PubChem BioAssay (NCI).
#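 Growth conditions: 96-well plates. Treatment: test compound, 48 hours, 5 concentrations. Analysis: linear interpolation between bracketing concentrations; unreached endpoints set to highest concentration. The concentration for full growth arrest is given as TGI.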
# Tests used:
# Assay in all cases: NCI-60 cell line screen, 48 h
# COLO 205 colon = system: COLO 205 colon
# SF-295 CNS = system: SF-295 CNS
# CAKI-1 renal = system: CAKI-1 renal
# ACHN renal = system: ACHN renal
# UACC-257 melanoma = system: UACC-257 melanoma
# U251 CNS = system: U251 CNS
# MCF7 breast = system: MCF7 breast
# SNB-19 CNS = system: SNB-19 CNS
# LOX IMVI melanoma = system: LOX IMVI melanoma
# SK-MEL-28 melanoma = system: SK-MEL-28 melanoma
# HCT-15 colon = system: HCT-15 colon
# SK-MEL-2 melanoma = system: SK-MEL-2 melanoma
# NCI-H23 lung = system: NCI-H23 lung
# SK-OV-3 ovarian = system: SK-OV-3 ovarian
# OVCAR-5 ovarian = system: OVCAR-5 ovarian
# UO-31 renal = system: UO-31 renal
# K-562 leukemia = system: K-562 leukemia
# DU-145 prostate = system: DU-145 prostate
# PC-3 prostate = system: PC-3 prostate
# MDA-MB-231 breast = system: MDA-MB-231 breast
# M14 melanoma = system: M14 melanoma
# RXF 393 renal = system: RXF 393 renal
# HCT-116 colon = system: HCT-116 colon
# OVCAR-8 ovarian = system: OVCAR-8 ovarian
# MDA-MB-435 = system: MDA-MB-435
# NCI-H522 lung = system: NCI-H522 lung
# EKVX NSCLC = system: EKVX NSCLC
# HCC-2998 colon = system: HCC-2998 colon
# SNB-75 CNS = system: SNB-75 CNS
# A498 renal = system: A498 renal
# SW-620 colon = system: SW-620 colon
# OVCAR-4 ovarian = system: OVCAR-4 ovarian
# NCI/ADR-RES ovarian = system: NCI/ADR-RES ovarian
# CCRF-CEM leukemia = system: CCRF-CEM leukemia
# KM12 colon = system: KM12 colon
# MDA-N = system: MDA-N
# OVCAR-3 ovarian = system: OVCAR-3 ovarian
# NCI-H226 lung = system: NCI-H226 lung
# NCI-H460 lung = system: NCI-H460 lung
# 786-0 renal = system: 786-0 renal
# TK-10 renal = system: TK-10 renal
# IGROV1 ovarian = system: IGROV1 ovarian
# MALME-3M melanoma = system: MALME-3M melanoma
# SF-268 CNS = system: SF-268 CNS
# SN12C renal = system: SN12C renal
# SF-539 CNS = system: SF-539 CNS
# HOP-62 NSCLC = system: HOP-62 NSCLC
# HOP-92 NSCLC = system: HOP-92 NSCLC
# MOLT-4 leukemia = system: MOLT-4 leukemia
# T-47D breast = system: T-47D breast
# A549 NSCLC = system: A549 NSCLC
# UACC-62 melanoma = system: UACC-62 melanoma
# HT29 colon = system: HT29 colon
# HL-60(TB) leukemia = system: HL-60(TB) leukemia
smiles,measurement,setting,value
COC(=O)CNC(=O)CCSc1nnc(COc2ccc(Cl)cc2)n1-c1ccccc1,TGI,COLO 205 colon,> 100 µM
same,TGI,SF-295 CNS,> 100 µM
same,TGI,CAKI-1 renal,26.7 µM
same,TGI,ACHN renal,> 100 µM
same,TGI,UACC-257 melanoma,38.8 µM
same,TGI,U251 CNS,> 100 µM
same,TGI,MCF7 breast,> 100 µM
same,TGI,SNB-19 CNS,> 100 µM
same,TGI,LOX IMVI melanoma,> 100 µM
same,TGI,SK-MEL-28 melanoma,56.9 µM
same,TGI,HCT-15 colon,> 100 µM
same,TGI,SK-MEL-2 melanoma,48.8 µM
same,TGI,NCI-H23 lung,> 100 µM
same,TGI,SK-OV-3 ovarian,> 100 µM
same,TGI,OVCAR-5 ovarian,> 100 µM
same,TGI,UO-31 renal,> 100 µM
same,TGI,K-562 leukemia,> 100 µM
same,TGI,DU-145 prostate,51.5 µM
same,TGI,PC-3 prostate,> 100 µM
same,TGI,MDA-MB-231 breast,49.1 µM
same,TGI,M14 melanoma,65.5 µM
same,TGI,RXF 393 renal,67.5 µM
same,TGI,HCT-116 colon,> 100 µM
same,TGI,OVCAR-8 ovarian,> 100 µM
same,TGI,MDA-MB-435,60.4 µM
same,TGI,NCI-H522 lung,33.6 µM
same,TGI,EKVX NSCLC,> 100 µM
same,TGI,HCC-2998 colon,> 100 µM
same,TGI,SNB-75 CNS,40.7 µM
same,TGI,A498 renal,> 100 µM
same,TGI,SW-620 colon,> 100 µM
same,TGI,OVCAR-4 ovarian,> 100 µM
same,TGI,NCI/ADR-RES ovarian,> 100 µM
same,TGI,CCRF-CEM leukemia,> 100 µM
same,TGI,KM12 colon,> 100 µM
same,TGI,MDA-N,37.6 µM
same,TGI,OVCAR-3 ovarian,> 100 µM
same,TGI,NCI-H226 lung,84.6 µM
same,TGI,NCI-H460 lung,> 100 µM
same,TGI,786-0 renal,42.6 µM
same,TGI,TK-10 renal,35 µM
same,TGI,IGROV1 ovarian,98.7 µM
same,TGI,MALME-3M melanoma,58.3 µM
same,TGI,SF-268 CNS,48.5 µM
same,TGI,SN12C renal,45.9 µM
same,TGI,SF-539 CNS,> 100 µM
same,TGI,HOP-62 NSCLC,> 100 µM
same,TGI,HOP-92 NSCLC,> 100 µM
same,TGI,MOLT-4 leukemia,> 100 µM
same,TGI,T-47D breast,> 100 µM
same,TGI,A549 NSCLC,> 100 µM
same,TGI,UACC-62 melanoma,44 µM
same,TGI,HT29 colon,> 100 µM
same,TGI,HL-60(TB) leukemia,> 100 µM
